Like-named read-outs stand apart in the source and are kept apart here.
Columns and labels:
sigma receptors = target: T1, sigma receptors (Cavia porcellus, UniProt Q60492); assay: Receptor binding test: inhibition of tritium-labeled (+) pentazocine binding to brain homogenate; design: species or system male guinea pig
T1 construct: The brain was immediately extracted; The cerebellum was removed from the brain; from tissue; host or cells: guinea pig brain without cerebellum, membrane pellet
Method: (§1) Properties relating to binding of the vesamicol piperazine derivatives of the present invention to various receptors were examined as follows. Specifically, ligands which combine with each receptor were incubated together with homogenates prepared as follows.
To measure affinity to sigma receptors, tritium-labeled (+) pentazocine was added to a brain homogenate prepared as follows. The vesamicol piperazine derivatives synthesized in the Examples were added at various concentrations, and the mixture was incubated for two hours at room temperature.
(§2) B (%) =((1 0 0 × [U])^(∩))/([ I C50 (])^(∩) (+ [U])^(∩)) [formula] wherein B(%) is the proportion of specific binding in the total binding, n indicates a Hill coefficient, and U is the concentration of unbound ligand.
A male guinea pig was anesthetized with ether and was decapitated. The brain was immediately extracted. The cerebellum was removed from the brain. 10 mM Tris-sucrose buffer solution (0.32 M sucrose + 10 mM Tris-HCl (pH 7.4)) was added in the amount of 10 ml/g of the tissue. The mixture was homogenized by a potter-type homogenizer for 6-10 strokes. The homogenate was centrifuged at 1,000 x g for 10 minutes at 4°C and the supernatant liquid was collected. The resulting pellets were suspended in the Tris-sucrose buffer solution at the concentration of 2 ml/g, followed by centrifugation at 1,000 x g for 10 minutes at 4°C. The supernatant liquids obtained by the two centrifugation at 1,000 x g were combined and centrifuged at 31,000 x g for 15 minutes at 4°C. The resulting pellets were suspended in a 10 mM Tris-HCl buffer solution (pH 7.4) at a concentration of 3 ml/g of tissue and incubated for 30 minutes at 25°C. After incubation, the suspension was centrifuged at 31,000 x g for 15 minutes at 4°C. The pellets obtained were suspended in a 10 mM Tris-HCl buffer solution (pH 7.4) to make a final concentration of 1.53 ml/g of tissue. The suspension was homogenized by a potter-type homogenizer for 5 strokes. The homogenate was stored at -80°C until the start of the experiment.

vesamicol receptors [1] = target: T2, vesamicol receptors (Rattus norvegicus, UniProt Q62666); assay: Receptor binding test: inhibition of I-125 labeled 5-iodobenzo vesamicol binding to brain homogenate; design: from tissue; host or cells: rat brain without cerebellum, P2 fraction; species or system Male Wistar rats; settings: for IC50: Inhibitive concentration at 50% (IC50), Vesamicol receptor, Table 5, incubated three hours at 37°C, no unit printed in table (b19 gives nM for DRC140)
T2 sequence (Q62666 1-530): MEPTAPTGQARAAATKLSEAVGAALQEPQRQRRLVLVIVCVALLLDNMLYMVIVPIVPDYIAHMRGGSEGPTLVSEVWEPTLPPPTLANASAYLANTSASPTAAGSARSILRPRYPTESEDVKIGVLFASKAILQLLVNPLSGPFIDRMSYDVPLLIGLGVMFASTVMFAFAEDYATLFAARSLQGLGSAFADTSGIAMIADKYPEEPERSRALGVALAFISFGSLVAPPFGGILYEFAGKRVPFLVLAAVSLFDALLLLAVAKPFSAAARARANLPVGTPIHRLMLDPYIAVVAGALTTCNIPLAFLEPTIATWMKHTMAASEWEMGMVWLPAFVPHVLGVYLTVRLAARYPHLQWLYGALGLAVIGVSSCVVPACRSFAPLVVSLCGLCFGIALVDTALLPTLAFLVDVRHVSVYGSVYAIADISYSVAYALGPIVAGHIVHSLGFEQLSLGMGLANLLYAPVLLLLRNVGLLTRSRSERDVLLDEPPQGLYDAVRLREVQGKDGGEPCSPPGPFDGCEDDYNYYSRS
Method: as §1
To measure affinity of vesamicol receptors, I-125 labeled 5-iodobenzo vesamicol (synthesized and labeled according to Jung et al., J. Med. Chem. 33, 2065-2068, 1990) was added to a brain homogenate prepared as follows. The vesamicol piperazine derivatives synthesized in the Examples were added at various concentrations. The mixture was then incubated for three hours at 37°C.
as §2
Male Wistar rats were anesthetized with ether and were decapitated. The brains were immediately extracted. The cerebella were removed from the brains. 0.32 M sucrose (containing 4 mM HEPES (pH 7.4)) in an amount of five times the wet amount (weight) of this sample was added. The sample was homogenized by a potter-type homogenizer for 12 strokes while cooling with ice. 0.32 M sucrose in the same amount as the homogenate (total: 10 times the wet amount of the original sample) was added. The suspension thus obtained was centrifuged for 5 minutes at 1,000 x g. The precipitate was removed. The supernatant liquid was centrifuged at 9,200 x g for 15 minutes to separate the precipitate from the supernatant liquid. P2 fractions were suspended in a Tris-HCl buffer (pH 7.4) for binding experiments and stored at -80°C until the start of the binding experiment.

vesamicol receptors [2] = target: T2, vesamicol receptors; assay: Inhibition experiment: inhibition of binding of radioactive-iodine-labeled DRC140 to P2 fractions; design: Synaptic vesicles were extracted and separated from the brain of a rat; from tissue; host or cells: rat brain without cerebellum: P2, crude synaptic vesicles, purified synaptic vesicles
[3] = target: T3, serotonin 5-HT1A receptors (Rattus norvegicus, UniProt P19327); assay: Receptor binding test: inhibition of tritium-labeled 8-hydroxy-DPAT binding to brain (hippocampus) homogenate; design: species or system Male Wistar rats
T3 construct: The hippocampi were immediately collected from the brains; from tissue; host or cells: rat hippocampus membranes
T3 sequence (P19327 1-422): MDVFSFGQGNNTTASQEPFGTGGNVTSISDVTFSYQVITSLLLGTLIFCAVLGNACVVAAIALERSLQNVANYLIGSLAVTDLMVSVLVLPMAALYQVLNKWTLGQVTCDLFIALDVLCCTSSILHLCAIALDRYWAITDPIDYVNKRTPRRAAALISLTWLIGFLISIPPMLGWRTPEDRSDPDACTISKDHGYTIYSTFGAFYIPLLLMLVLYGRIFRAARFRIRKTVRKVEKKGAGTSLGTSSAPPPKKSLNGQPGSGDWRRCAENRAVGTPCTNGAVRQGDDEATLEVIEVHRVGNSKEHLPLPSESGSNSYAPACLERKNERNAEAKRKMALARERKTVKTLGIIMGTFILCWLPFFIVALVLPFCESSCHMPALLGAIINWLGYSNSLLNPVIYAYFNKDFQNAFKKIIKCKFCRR
Method: as §1
To measure affinity to serotonin 5-HT1A receptors, tritium-labeled 8-hydroxy-DPAT was added to a brain homogenate prepared as follows. The vesamicol piperazine derivatives synthesized in the Examples were added at various concentrations, and the mixture was incubated for 30 minutes at 37°C. To measure affinity to serotonin 5-HT2A receptors, tritium-labeled ketanserin was added to a brain homogenate prepared as follows. The vesamicol piperazine derivatives synthesized in the Examples were added at various concentrations, and the mixture was incubated for 15 minutes at 37°C.
as §2
Male Wistar rats were anesthetized with ether and were decapitated and the brains quickly extracted. The hippocampi were immediately collected from the brains. A 40-fold (vol/wt) amount of ice cooled 50 mM Tris-HCl buffer (pH 7.4) was added to the hippocampi. The mixture was homogenized using a potter-type homogenizer. The homogenate was centrifuged at 40,000 x g for 20 minutes. The supernatant liquid was removed and the resulting pellets were suspended in a 40-fold amount of Tris-HCl buffer solution. The suspension was centrifuged and the Tris buffer solution was again added to the pellets. This procedure was repeated twice. The product thus obtained was homogenized using a 40-fold amount of Tris-HCl buffer solution and incubated for 10 minutes at 37°C to remove endogenic 5-HT. The cell membrane was collected by centrifugation, washed twice, and suspended in a 10-fold amount of 50 mM Tris-HCl buffer solution (pH 7.4). The suspension thus obtained was stored at -80°C until the start of the binding experiment.

adrenaline α1 receptors = assay: Receptor binding test: inhibition of tritium-labeled prazosin binding to brain homogenate; design: species or system Male Wistar rats
vesamicol receptors [4] = target: T2, vesamicol receptors; assay: Saturation experiment of I-125 labeled DRC140 on brain cell fractions (Scatchard plots); format: binding; design: Synaptic vesicles were extracted and separated from the brain of a rat; from tissue; host or cells: rat brain without cerebellum: P2, crude synaptic vesicles, purified synaptic vesicles; settings: for Bmax / Kd: average value ± standard deviation
vesamicol receptors [5] = target: T2, vesamicol receptors; assay: Inhibition experiment: inhibition of binding of radioactive-iodine-labeled DRC140 to purified synaptic vesicle fractions; design: Synaptic vesicles were extracted and separated from the brain of a rat; from tissue; host or cells: rat brain without cerebellum: P2, crude synaptic vesicles, purified synaptic vesicles; settings: for inhibitive action on purified synaptic vesicles: result in words
[6] = Inhibitive concentration at 50% (IC50), Sigma α-1 receptor
[7] = inhibitive concentration at 50% (IC50), Receptor Vesamicol

T1 sequence (Q60492 whole entry): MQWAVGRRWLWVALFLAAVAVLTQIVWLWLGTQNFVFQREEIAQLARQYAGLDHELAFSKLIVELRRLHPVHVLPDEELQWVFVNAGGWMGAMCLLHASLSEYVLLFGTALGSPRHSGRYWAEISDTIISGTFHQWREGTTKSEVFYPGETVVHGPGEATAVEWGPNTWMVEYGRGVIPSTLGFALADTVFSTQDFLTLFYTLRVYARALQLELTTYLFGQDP

Cc1cccc(C)c1N1CCN([C@@H]2Cc3c(I)cccc3C[C@H]2O)CC1 (racemic) [DRF382, (±)-trans-5-iodo-2-hydroxy-3-[4-[2,6-dimethylphenyl]piperazinyl]tetralin]
IC50 (sigma receptors; [6]): 1300 nM
IC50 (vesamicol receptors [1]): 5.04 nM
IC50 (vesamicol receptors [2]; [7]): 6.94 nM

Cc1ccc(I)cc1N1CCN([C@@H]2Cc3c(N)cccc3C[C@H]2O)CC1 (racemic) [DRF383, (±)-trans-5-amino-2-hydroxy-3-[4-[5-iodo-2-methylphenyl]-piperazinyl]tetralin]
IC50 (sigma receptors; [6]): 6900 nM
IC50 (vesamicol receptors [1]): 8.74 nM
IC50 (vesamicol receptors [2]; [7]): 8.47 nM

O[C@@H]1Cc2cc(I)ccc2C[C@H]1N1CCN(c2ccccc2)CC1 (racemic) [DRG449, (±)-trans-7-iodo-2-hydroxy-3-[4-phenylpiperazinyl]tetralin]
IC50 (sigma receptors; inhibitive concentration at 50% (IC50), Receptor Sigma-1): 348 nM
IC50 [3]: 4770 nM
IC50 (vesamicol receptors [2]; [7]): 0.55 nM

Cc1ccccc1N1CCN([C@@H]2Cc3c(I)cccc3C[C@H]2O)CC1 (single isomer, unassigned) [DRE342, (-)-trans-5-iodo-2-hydroxy-3-[4-[2-methylphenyl]piperazinyl]tetralin]
IC50 (sigma receptors; [6]): 50 nM
IC50 [3]: 512 nM
IC50 (vesamicol receptors [1]): 0.23 nM
IC50 (vesamicol receptors [2]; [7]): 0.56 nM

Cc1ccc(C)c(N2CCN([C@@H]3Cc4c(I)cccc4C[C@H]3O)CC2)c1 (single isomer, unassigned) [DRE351, (+)-trans-5-iodo-2-hydroxy-3-[4-[2,5-dimethylphenyl]piperazinyl]tetralin]
IC50 (sigma receptors; [6]): 4500 nM
IC50 [3]: 664 nM
IC50 (vesamicol receptors [1]): 7.11 nM
IC50 (vesamicol receptors [2]; [7]): 11.4 nM

O[C@@H]1Cc2cccc(I)c2C[C@H]1N1CCC(c2ccccc2)CC1 [5-iodobenzovesamicol]
IC50 (adrenaline α1 receptors; applicant's own research, read-out: affinity to an α1-receptor (IC50)): 6.74 nM

O[C@@H]1Cc2cccc(I)c2C[C@H]1N1CCN(c2ccccc2)CC1 [DRC140, (-)-trans-5-iodo-2-hydroxy-3-(4-phenyl-1-piperazinyl)tetralin]
IC50 (adrenaline α1 receptors; read-out: Inhibitive concentration at 50% (IC50), Adrenaline α1 receptor, Table 5, incubated 30 minutes at 37°C, unit inferred): 402 nM
IC50 (adrenaline α1 receptors; text of disclosure, adrenaline-type nerve system receptor, read-out: IC50 value for α1-receptor): 402 nM
greater affinity to vesamicol receptors (versus α1-receptor) (vesamicol receptors [1]; ratio of IC50 α1-receptor / vesamicol receptors): 190 times
activity to the vesamicol receptor as high as the activity to the sigma receptor (vesamicol receptors [1]; ratio vesamicol receptor versus sigma receptor): 4,000 times
time to reach equilibrium (vesamicol receptors [4]; at 37°C): 3 h

Cc1ccccc1NC(=N)Nc1ccccc1C [DTG, reference compound]
inhibitive action on P2 fractions (vesamicol receptors [2]): weak inhibitive action
IC50 (vesamicol receptors [2]; IC50 (nM) Average ± S.D): 3820 ± 930 nM
IC50 (vesamicol receptors [5]): 4160 ± 251 nM
inhibitive action on purified synaptic vesicles (vesamicol receptors [5]): almost the same degree of weak inhibitive action

OC1Cc2cccc([125I])c2CC1N1CCN(c2ccccc2)CC1 (stereo not drawn) [I-125 labeled DRC140]
Bmax (vesamicol receptors [4]; Crude synaptic vesicles): 821±78.6 fmol/mg protein
Kd (vesamicol receptors [4]; Crude synaptic vesicles): 0.34 ± 0.03 nM
Kd (vesamicol receptors [4]; P2 fraction): 0.41 ± 0.11 nM
Kd (vesamicol receptors [4]; Purified synaptic vesicles): 0.31 nM
Bmax (vesamicol receptors [4]; P2 fraction, 3 hours at 37°C): 187±58.3 fmol/mg protein
Bmax (vesamicol receptors [4]; Purified synaptic vesicles): 1751±92.6 fmol/mg protein
increase in the Bmax of purified synaptic vesicles relative to P2 fractions (vesamicol receptors [4]; purified by density gradient centrifugation versus P2 fractions): approximately nine

O=C(c1ccc(F)cc1)C1CCN(CCn2c(=O)[nH]c3ccccc3c2=O)CC1 [Ketanserin, reference compound]
IC50 (vesamicol receptors [2]; Table 7, P2 fractions, inhibition of radioactive-iodine-labeled DRC140 binding, Binding site names the inhibitor's own site, read-out: IC50 (nM) Average ± S.D): 1110 ± 187 nM
inhibitive action on P2 fractions (vesamicol receptors [2]; result in words): weak inhibitive action
IC50 (vesamicol receptors [5]; Table 8, purified synaptic vesicle fractions, inhibition of radioactive-iodine-labeled DRC140 binding, read-out: IC50 (nM) Average ± S.D): 1200 ± 43 nM
inhibitive action on purified synaptic vesicles (vesamicol receptors [5]): almost the same degree of weak inhibitive action

m-(iodobenzyl)trozamicol [(+)-MIBT, reference compound]
IC50 (adrenaline α1 receptors; read-out: inhibitive concentration at 50% (IC50), Receptor Alpha-1, Table 9, high purity derivatives, unit inferred): 421 nM
IC50 (sigma receptors; read-out: inhibitive concentration at 50% (IC50), Receptor Sigma-1, Table 9, high purity derivatives, unit inferred): 4.27 nM
IC50 ([3]; read-out: inhibitive concentration at 50% (IC50), Receptor 5-HT1A, Table 9, high purity derivatives, unit inferred): 16600 nM
IC50 (vesamicol receptors [2]; read-out: inhibitive concentration at 50% (IC50), Receptor Vesamicol, Table 9, high purity derivatives (HPLC purified), I-125 labeled DRC140, P2 fractions, 3 hours at 37°C, unit inferred): 0.89 nM
